For the assay, the target named is T1, MerTK (Homo sapiens, UniProt Q12866).
T1 construct: Seed HUVECs (10K cells/well) in EBM-2 complete media; host or cells: HUVEC (primary human umbilical vein endothelial cells)
T1 sequence (Q12866 21-999): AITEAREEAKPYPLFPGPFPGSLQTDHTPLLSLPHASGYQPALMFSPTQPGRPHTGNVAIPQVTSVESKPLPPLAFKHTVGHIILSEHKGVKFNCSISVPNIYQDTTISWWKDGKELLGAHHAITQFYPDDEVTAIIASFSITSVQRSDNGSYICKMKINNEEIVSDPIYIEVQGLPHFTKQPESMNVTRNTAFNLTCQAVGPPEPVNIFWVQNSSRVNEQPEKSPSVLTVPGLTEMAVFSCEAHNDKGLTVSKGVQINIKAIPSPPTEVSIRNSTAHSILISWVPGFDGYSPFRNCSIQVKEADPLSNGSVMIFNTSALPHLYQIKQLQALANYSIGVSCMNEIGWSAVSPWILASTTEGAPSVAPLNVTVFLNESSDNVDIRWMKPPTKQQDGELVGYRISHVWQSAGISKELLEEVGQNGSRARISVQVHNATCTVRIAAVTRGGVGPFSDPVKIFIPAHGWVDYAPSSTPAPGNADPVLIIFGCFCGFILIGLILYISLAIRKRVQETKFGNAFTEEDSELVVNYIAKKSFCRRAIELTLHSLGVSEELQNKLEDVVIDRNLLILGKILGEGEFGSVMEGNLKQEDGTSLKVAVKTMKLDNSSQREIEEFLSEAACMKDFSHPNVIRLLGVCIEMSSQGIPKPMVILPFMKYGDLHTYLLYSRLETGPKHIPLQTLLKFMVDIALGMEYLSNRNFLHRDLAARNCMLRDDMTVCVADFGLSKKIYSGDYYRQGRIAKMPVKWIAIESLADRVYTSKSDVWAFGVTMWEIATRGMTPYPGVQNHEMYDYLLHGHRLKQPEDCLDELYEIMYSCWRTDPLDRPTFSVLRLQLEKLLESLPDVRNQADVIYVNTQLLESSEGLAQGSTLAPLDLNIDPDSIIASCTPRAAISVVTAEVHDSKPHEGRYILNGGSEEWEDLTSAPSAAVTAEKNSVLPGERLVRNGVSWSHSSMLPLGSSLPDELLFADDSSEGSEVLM
Put plainly: PAKT HTRF-HUVEC assay (pAkt Ser473 HTRF after anti-human MerTK-XL stimulation). Type of assay: cell-based. Particulars: HUVEC cells, 1 hour compound, stimulated with anti-human MerTK-XL 1 ug/mL for 10 minutes, read-out: inhibition of MerTK. The gist of the method: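 Akt Ser473 phosphorylation measured by HTRF in lysates of serum-starved HUVECs. Cells received compound for 1 h at 37° C before a 10-min challenge with antibody-cross-linked anti-MerTK (1 ug/mL final); EC50 derived by curve fit.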

SMILES strings stand for the structures.

Take `CN1CC2(C1)CN(c1ccc3c(c1)c(=O)n([C@H]1CC[C@H](O)CC1)c1nc(NC4CC(F)(F)C4)ncc31)C2` [Compound 66, trans-3-((3,3-Difluorocyclobutyl)amino)-5-(4-hydroxycyclohexyl)-8-(6-methyl-2,6-diazaspiro[3.3]heptan-2-yl)pyrimido[4,5-c]isoquinolin-6(5H)-one]: the EC50 was determined as 298 nM.

In the case of `O=c1c2cc(N3CC4(COC4)C3)ccc2c2cnc(NC3CC(F)(F)C3)nc2n1[C@H]1CC[C@H](O)CC1` [Compound 67, trans-3-((3,3-difluorocyclobutyl)amino)-5-(4-hydroxycyclohexyl)-8-(2-oxa-6-azaspiro[3.3]heptan-6-yl)pyrimido[4,5-c]isoquinolin-6(5H)-one], the EC50 was 8030 nM. In the case of `CCCCNc1ncc2c3ccc(N4CC5(COC5)C4)cc3c(=O)n([C@H]3CC[C@H](O)CC3)c2n1` [Compound 68, trans-3-(Butylamino)-5-(4-hydroxycyclohexyl)-8-(2-oxa-6-azaspiro[3.3]heptan-6-yl)pyrimido[4,5-c]isoquinolin-6(5H)-one] it was 78.4 nM; in that of `CCCCNc1ncc2c3ccc(N4CCN(C(C)C)CC4)cc3c(=O)n([C@H]3CC[C@H](O)CC3)c2n1` [Compound 69, trans-3-(Butylamino)-5-(4-hydroxycyclohexyl)-8-(4-isopropylpiperazin-1-yl)pyrimido[4,5-c]isoquinolin-6(5H)-one], 20.4 nM.

For `CCCCNc1ncc2c3ccc(N4CCN(C(C)C)CC4)cc3c(=O)n(C3CCC(=O)CC3)c2n1` [Compound 70, 3-(Butylamino)-8-(4-isopropylpiperazin-1-yl)-5-(4-oxocyclohexyl)pyrimido[4,5-c]isoquinolin-6(5H)-one], the EC50 amounted to 184 nM. Regarding `CCCCNc1ncc2c3ccc(N4CCC(N5CCCC5)CC4)cc3c(=O)n([C@H]3CC[C@H](O)CC3)c2n1` [Compound 71, trans-3-(Butylamino)-5-(4-hydroxycyclohexyl)-8-(4-(pyrrolidin-1-yl)piperidin-1-yl)pyrimido[4,5-c]isoquinolin-6(5H)-one], the EC50 stood at 33.4 nM. For the compound `CCCCNc1ncc2c3ccc(N4CCC(N5CCCC5)CC4)cc3c(=O)n(C3CCC(=O)CC3)c2n1` [Compound 72, 3-(Butylamino)-5-(4-oxocyclohexyl)-8-(4-(pyrrolidin-1-yl)piperidin-1-yl)pyrimido[4,5-c]isoquinolin-6(5H)-one], the EC50 was determined as 220 nM. Next, `CCCCNc1ncc2c3ccc(N4CCN5CCC[C@H]5C4)cc3c(=O)n([C@H]3CC[C@H](O)CC3)c2n1` [Compound 73, trans-3-(Butylamino)-8-((S)-hexahydropyrrolo[1,2-a]pyrazin-2(1H)-yl)-5-((1r,4S)-4-hydroxycyclohexyl)pyrimido [4,5-c]isoquinolin-6(5H)-one]: 21 nM; `CN1CC2(C1)CN(c1ccc3c(c1)c(=O)n([C@H]1CC[C@H](O)CC1)c1nc(NC4CC(F)C4)ncc31)C2` (stereo partly drawn) [Compound 74, trans-3-((3-Fluorocyclobutyl)amino)-5-(4-hydroxycyclohexyl)-8-(6-methyl-2,6-diazaspiro[3.3]heptan-2-yl)pyrimido[4,5-c]isoquinolin-6(5H)-one]: 218 nM.

On to `O=c1c2cc(N3CC4(COC4)C3)ccc2c2cnc(NC3CC(F)C3)nc2n1[C@H]1CC[C@H](O)CC1` (stereo partly drawn) [Compound 75, trans-3-((3-Fluorocyclobutyl)amino)-5-(4-hydroxycyclohexyl)-8-(2-oxa-6-azaspiro[3.3]heptan-6-yl)pyrimido[4,5-c]isoquinolin-6(5H)-one], for which the EC50 stood at 1080 nM. Consider `CCCCNc1ncc2c3ccc(N4CCN5CCC[C@@H]5C4)cc3c(=O)n([C@H]3CC[C@H](O)CC3)c2n1` [Compound 76, trans-3-(Butylamino)-8-((R)-hexahydropyrrolo[1,2-a]pyrazin-2(1H)-yl)-5-(4-hydroxycyclohexyl)pyrimido [4,5-c]isoquinolin-6(5H)-one], for which the EC50 came out at 11.5 nM.

On to `CCCCNc1ncc2c3ccc(N4CCN(C5COC5)CC4)cc3c(=O)n([C@H]3CC[C@H](O)CC3)c2n1` [Compound 77, trans-3-(Butylamino)-5-(4-hydroxycyclohexyl)-8-(4-(oxetan-3-yl)piperazin-1-yl)pyrimido[4,5-c]isoquinolin-6(5H)-one], for which the EC50 amounted to 21.9 nM. Consider `CCCCNc1ncc2c3ccc(N4C[C@@H](C)N(C)C[C@@H]4C)cc3c(=O)n([C@H]3CC[C@H](O)CC3)c2n1` [Compound 78, trans-3-(Butylamino)-5-(4-hydroxycyclohexyl)-8-((2S,5R)-2,4,5-trimethylpiperazin-1-yl)pyrimido[4,5-c]isoquinolin-6(5H)-one], for which the EC50 was determined as 9 nM. With `CCCCNc1ncc2c3ccc(N4C[C@@H](C)N(C)C[C@@H]4C)cc3c(=O)n(C3CCC(=O)CC3)c2n1` [Compound 79, 3-(Butylamino)-5-(4-oxocyclohexyl)-8-((2S,5R)-2,4,5-trimethylpiperazin-1-yl)pyrimido[4,5-c]isoquinolin-6(5H)-one], the EC50 was determined as 156 nM. As to `CCCCNc1ncc2c3ccc(N4CCn5ncnc5C4)cc3c(=O)n([C@H]3CC[C@H](O)CC3)c2n1` [Compound 80, trans-3-(Butylamino)-8-(5,6-dihydro-[1,2,4]triazolo[1,5-a]pyrazin-7(8H)-yl)-5-(4-hydroxycyclohexyl)pyrimido [4,5-c]isoquinolin-6(5H)-one], the EC50 was 34.5 nM. For `CCCCNc1ncc2c3ccc(N4CCN5CCC4CC5)cc3c(=O)n([C@H]3CC[C@H](O)CC3)c2n1` [Compound 81, trans-8-(1,4-Diazabicyclo[3.2.2]nonan-4-yl)-3-(butylamino)-5-(4-hydroxycyclohexyl)pyrimido[4,5-c]isoquinolin-6(5H)-one], the EC50 is 13.9 nM. For `CCCCNc1ncc2c3ccc(N4CCN5CCC4CC5)cc3c(=O)n(C3CCC(=O)CC3)c2n1` [Compound 82, 8-(1,4-Diazabicyclo[3.2.2]nonan-4-yl)-3-(butylamino)-5-(4-oxocyclohexyl)pyrimido[4,5-c]isoquinolin-6(5H)-one], the EC50 was 216 nM. For the compound `CCCCNc1ncc2c3ccc(N4CCNCC4)cc3c(=O)n([C@H]3CC[C@H](O)CC3)c2n1` [Compound 83, trans-3-(Butylamino)-5-(4-hydroxycyclohexyl)-8-(piperazin-1-yl)pyrimido[4,5-c]isoquinolin-6(5H)-one], the EC50 amounted to 31.8 nM. In the case of `CCCCNc1ncc2c3ccc(N4CCNCC4)cc3c(=O)n(C3CCC(=O)CC3)c2n1` [Compound 84, 3-(Butylamino)-5-(4-oxocyclohexyl)-8-(piperazin-1-yl)pyrimido[4,5-c]isoquinolin-6(5H)-one], the EC50 worked out at 288 nM.

For the compound `CN1CCN(c2ccc3c(c2)c(=O)n([C@H]2CC[C@H](O)CC2)c2nc(NC4CC(F)(F)C4)ncc32)CC1` [Compound 85, trans-3-((3,3-Difluorocyclobutyl)amino)-5-(4-hydroxycyclohexyl)-8-(4-methylpiperazin-1-yl)pyrimido[4,5-c]isoquinolin-6(5H)-one], the EC50 came to 221 nM.

On to `CCCCNc1ncc2c3ccc(N4CCN(C)CC4)cc3c(=O)n(C3CCC(C)(O)CC3)c2n1` (stereo not drawn) [Compound 86, trans-3-(Butylamino)-5-(4-hydroxy-4-methylcyclohexyl)-8-(4-methylpiperazin-1-yl)pyrimido[4,5-c]isoquinolin-6(5H)-one], for which the EC50 stood at 19.9 nM.

These data come from US11110082B2, “Tyrosine kinase inhibitors” (Rigel Pharmaceuticals, Inc., priority 2016, dated 2021).
